From US20250122181A1, “BENZIMIDAZOLES AS MODULATORS OF IL-17” (Janssen Pharmaceutica NV, priority 2021, published 2025)

Columns and labels:
[1] = biological target: IL-17A(FLAG-Tagged): IL-17RA(His-Tagged) (Homo sapiens, UniProt Q16552, K93Q); experiment: IL-17A(FLAG-Tagged): IL-17RA(His-Tagged) Binding Disruption Eu-HTRF Assay, Protocol 1; details: Protocol 1, FLAG tagged IL-17A 2.5 nM; simple average if tested more than once
Excerpt: An antibody directed against the FLAG tag of IL-17A (SEQ ID NO: 1) is labeled with the HTRF donor chromophore (Europium-cryptate). IL-17A is present as a dimer that is “locked into” this quaternary structure due to the formation of loop-spanning […] disulfide bridges. The construct of IL-17RA used in the assay excludes the […] portion of the receptor and is fused to a C-terminal 10×His tag (SEQ ID NO:2). An antibody directed against the His tag of the IL-17RA chimera is labeled with the HTRF acceptor chromophore (“D2”). The fluorescence-resonance energy transfer (FRET) depends on the vicinity of the donor chromophore to the acceptor, and interruption of the binding between the IL-17A and IL-17RA causes the reduction/loss of FRET. Therefore, this assay allows to evaluate the compound effect on the binding IL-17A and IL-17RA by monitoring the fluorescence intensity of donor vs acceptor. The assay was run using either Protocol 1 or Protocol 2 as described below.
Protocol 1. 40 nl of 2-fold serial diluted compound solution for total 22 dilution points is added into each well of a 1536-well, white, low-volume, non-binding plate (Greiner #782904), then 2 μl of FLAG tagged IL-17A at 2× final concentration (2.5 nM) in solution of PBS+0.01% Triton-X100 is added to each well. The assay plate is briefly centrifuged then incubated for 1 h at rt. A mixed solution is prepared containing 2×5 nM 10HIS×IL-17RA, 2×2.5 nM Eu-anti-FLAG (CISBIO), 2×5 nM D2-anti-HIS (CISBIO) in PBS+0.01% Triton-X100+200 mM Potassium Fluoride (Sigma 60238) and 2 μl of mix is added to each well of the assay plate. The plate is briefly centrifuged then incubated for 2 h at rt. The HTRF intensities at the wavelength of donor (620 nm) and acceptor (665 nm) are measured using BMG Pherastar. The ratio between intensities at two wavelengths is calculated and plotted against the compound concentration and the data is fitted to a one-site competition model to yield IC50 of the compound.

[2] = system: IL-17A-induced G-CSF production in human normal keratinocyte (NHK); experiment: NHK Assay: IL-17A-induced G-CSF production in human normal keratinocyte; type: cell-based; details: Homo sapiens, Keratinocyte, 24 h, IL-17A 5 ng/mL, simple average if tested more than once
Experimental: IL-17A acts directly on keratinocytes through binding to dimeric receptor IL-17RA/RC and drives the production of a number of inflammatory mediators known to be elevated in psoriasis lesional tissue. IL-17A small molecule inhibitors that block the IL-17A to interact with IL-17R would inhibit the IL-17A signaling in its targeted cells such as keratinocytes. The compound functional activity is evaluated for its impact on IL-17A-induced G-CSF production in human normal keratinocyte (NHK).
Adult normal human keratinocytes are cultured in keratinocyte growth medium (Lonza) in a flask till reaching ˜90% confluence, then cells are transferred to a 384-well plate at density of 3000-4000 cell/well. Recombinant human IL-17A (Gibco PHC9174) is pre-incubated with titrated compound or DMSO for 1 h at rt then added to the cell culture plate. The final concentration of IL-17A is 5 ng/mL and DMSO is 0.2%, in the culture containing 5% FBS. Cells are cultured/treated for 24 h at 37° C. Supernatants are collected and G-CSF production is measured through HTRF technology using Human G-CSF Kit (CisBio). G-CSF concentration was extrapolated from the standard curve and IC50 is determined using GraphPad Prism. Cell viability is also evaluated using CellTiter-Glo kit (Promega) and effect of compound on cell viability is compared to DMSO control.

UniProt Q16552, sequence (Q16552 with tags, fused parts or gaps K93Q): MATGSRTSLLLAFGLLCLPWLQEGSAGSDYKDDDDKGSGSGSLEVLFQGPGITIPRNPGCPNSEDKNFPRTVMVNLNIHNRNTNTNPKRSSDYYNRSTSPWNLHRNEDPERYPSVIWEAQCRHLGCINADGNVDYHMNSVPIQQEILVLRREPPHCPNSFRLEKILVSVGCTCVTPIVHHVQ

Compound `CC(C)(OC[C@H](NC(=O)c1nonc1C1CC1)c1nc2nc(CN3C[C@H](C(F)(F)F)NC3=O)ccc2[nH]1)C(F)(F)F` (relative stereo) [Example 38, 4-Cyclopropyl-N—((R*)-1-(5-(((R*)-2-oxo-4-(trifluoromethyl)imidazolidin-1-yl)methyl)-1H-imidazo[4,5-b]pyridin-2-yl)-2-((1,1,1-trifluoro-2-methylpropan-2-yl)oxy)ethyl)-1,2,5-oxadiazole-3-carboxamide] has an IC50 [1] of under 50 nM and an IC50 [2] of under 50 nM.

`CC(C)(OC[C@H](NC(=O)c1nonc1C1CC1)c1nc2nc(CN3C[C@@H](C(F)(F)F)NC3=O)ccc2[nH]1)C(F)(F)F` (relative stereo) [Example 39, 4-Cyclopropyl-N—((R*)-1-(5-(((S*)-2-oxo-4-(trifluoromethyl)imidazolidin-1-yl)methyl)-1H-imidazo[4,5-b]pyridin-2-yl)-2-((1,1,1-trifluoro-2-methylpropan-2-yl)oxy)ethyl)-1,2,5-oxadiazole-3-carboxamide] gave an IC50 [1] of over 100 nM and an IC50 [2] of over 100 nM.

With `Cc1nonc1C(=O)N[C@@H](COC(C)(C)C(F)(F)F)c1nc2cc([C@H](N3CC(F)(F)CNC3=O)C3(C#N)CC3)ccc2[nH]1` (relative stereo) [Example 40, N—((R*)-1-(5-((S*)-(1-Cyanocyclopropyl)(5,5-difluoro-2-oxotetrahydropyrimidin-1(2H)-yl)methyl)-1H-benzo[d]imidazol-2-yl)-2-((1,1,1-trifluoro-2-methylpropan-2-yl)oxy)ethyl)-4-methyl-1,2,5-oxadiazole-3-carboxamide] the IC50 [1] was 50 to 100 nM and the IC50 [2] was over 100 nM.

In the case of `[2H]C1([2H])[C@H](C(F)(F)F)NC(=O)N1[C@@H](c1ccc2[nH]c([C@H](CC(C)(C)C(F)(F)F)NC(=O)c3nonc3C)nc2c1)C1CC1` (relative stereo) [Example 53, N—((S)-1-(5-((R)-Cyclopropyl((S*)-2-oxo-4-(trifluoromethyl)imidazolidin-1-yl-5,5-d2)methyl)-1H-benzo[d]imidazol-2-yl)-4,4,4-trifluoro-3,3-dimethylbutyl)-4-methyl-1,2,5-oxadiazole-3-carboxamide], the IC50 [1] is reported as under 50 nM and the IC50 [2] is reported as under 50 nM.

With `[2H]C1([2H])[C@@H](C(F)(F)F)NC(=O)N1[C@H](COC)c1ccc2[nH]c([C@H](COC(C)(C)C(F)(F)F)NC(=O)c3nonc3C)nc2c1` (relative stereo) [Example 55, N—((R*)-1-(5-((S)-2-methoxy-1-((S*)-2-oxo-4-(trifluoromethyl)imidazolidin-1-yl-5,5-d2)ethyl)-1H-benzo[d]imidazol-2-yl)-2-((1,1,1-trifluoro-2-methylpropan-2-yl)oxy)ethyl)-4-methyl-1,2,5-oxadiazole-3-carboxamide] the IC50 [1] was under 50 nM and the IC50 [2] was under 50 nM.

`Cc1nonc1C(=O)N[C@@H](COC(C)(C)C(F)(F)F)c1nc2cc(CN3C[C@](C)(C(F)(F)F)NC3=O)ccc2[nH]1` (relative stereo) [Example 57, 4-Methyl-N—((R*)-1-(5-(((R*)-4-methyl-2-oxo-4-(trifluoromethyl)imidazolidin-1-yl)methyl)-1H-benzo[d]imidazol-2-yl)-2-((1,1,1-trifluoro-2-methylpropan-2-yl)oxy)ethyl)-1,2,5-oxadiazole-3-carboxamide] was tested, and the IC50 [1] was under 50 nM and the IC50 [2] was over 100 nM.

`Cc1nonc1C(=O)N[C@@H](COC(C)(C)C(F)(F)F)c1nc2cc(CN3C[C@@](C)(C(F)(F)F)NC3=O)ccc2[nH]1` (relative stereo) [Example 58, 4-Methyl-N—((R*)-1-(5-(((S*)-4-methyl-2-oxo-4-(trifluoromethyl)imidazolidin-1-yl)methyl)-1H-benzo[d]imidazol-2-yl)-2-((1,1,1-trifluoro-2-methylpropan-2-yl)oxy)ethyl)-1,2,5-oxadiazole-3-carboxamide] was tested, and the IC50 [1] was under 50 nM and the IC50 [2] was under 50 nM.

In the case of `[2H]C1([2H])[C@@H](C(F)(F)F)NC(=O)N1[C@H](COC1CC1)c1ccc2[nH]c([C@H](COC(C)(C)C(F)(F)F)NC(=O)c3nonc3C)nc2c1` (relative stereo) [Example 59, N—((R*)-1-(5-((S*)-2-Cyclopropoxy-1-((S*)-2-oxo-4-(trifluoromethyl)imidazolidin-1-yl-5,5-d2)ethyl)-1H-benzo[d]imidazol-2-yl)-2-((1,1,1-trifluoro-2-methylpropan-2-yl)oxy)ethyl)-4-methyl-1,2,5-oxadiazole-3-carboxamide], the IC50 [1] is reported as under 50 nM and the IC50 [2] is reported as under 50 nM.

For `CC(C)(OC[C@H](NC(=O)c1nonc1C1CC1)c1nc2cc(CN3C[C@](C)(C(F)(F)F)NC3=O)ccc2[nH]1)C(F)(F)F` (relative stereo) [Example 60, 4-Cyclopropyl-N—((R*)-1-(5-(((R*)-4-methyl-2-oxo-4-(trifluoromethyl)imidazolidin-1-yl)methyl)-1H-benzo[d]imidazol-2-yl)-2-((1,1,1-trifluoro-2-methylpropan-2-yl)oxy)ethyl)-1,2,5-oxadiazole-3-carboxamide], the IC50 [1] was under 50 nM and the IC50 [2] was under 50 nM.

Compound `CC(C)(OC[C@H](NC(=O)c1nonc1C1CC1)c1nc2cc(CN3C[C@@](C)(C(F)(F)F)NC3=O)ccc2[nH]1)C(F)(F)F` (relative stereo) [Example 61, 4-Cyclopropyl-N—((R*)-1-(5-(((S*)-4-methyl-2-oxo-4-(trifluoromethyl)imidazolidin-1-yl)methyl)-1H-benzo[d]imidazol-2-yl)-2-((1,1,1-trifluoro-2-methylpropan-2-yl)oxy)ethyl)-1,2,5-oxadiazole-3-carboxamide] has an IC50 [1] of under 50 nM and an IC50 [2] of under 50 nM.

In the case of `Cc1nonc1C(=O)NC(COC(C)(C)C(F)(F)F)c1nc2cc([C@@H](C)N3C[C@@H](C(F)(F)F)NC3=O)ccc2[nH]1` (single isomer, unassigned) [Example 6, 4-Methyl-N—((R*)-1-(5-((R)-1-((S)-2-oxo-4-(trifluoromethyl)imidazolidin-1-yl)ethyl)-1H-benzo[d]imidazol-2-yl)-2-((1,1,1-trifluoro-2-methylpropan-2-yl)oxy)ethyl)-1,2,5-oxadiazole-3-carboxamide], the IC50 [1] is reported as under 50 nM and the IC50 [2] is reported as under 50 nM.

`Cc1nonc1C(=O)NC(c1nc2cc([C@@H](C3CC3)N3C[C@@H](C(F)(F)F)NC3=O)ccc2[nH]1)[C@@H](C)O[C@H](C)C(F)(F)F` (single isomer, unassigned) [Example 10, N-((1R*,2R)-1-(5-((R)-Cyclopropyl((S)-2-oxo-4-(trifluoromethyl)imidazolidin-1-yl)methyl)-1H-benzo[d]imidazol-2-yl)-2-(((R)-1,1,1-trifluoropropan-2-yl)oxy)propyl)-4-methyl-1,2,5-oxadiazole-3-carboxamide] was tested, and the IC50 [1] was under 50 nM and the IC50 [2] was under 50 nM.

`[2H]C1([2H])[C@@H](C(F)(F)F)NC(=O)N1[C@@H](c1ccc2[nH]c([C@@H](NC(=O)c3nonc3C)[C@@H](C)O[C@@H](C)C(F)(F)F)nc2c1)C1CC1` (single isomer, unassigned) [Example 11] gave an IC50 [1] of over 100 nM and an IC50 [2] of over 100 nM.

Compound `Cc1nonc1C(=O)NC(c1nc2cc([C@@H](C3CC3)N3C[C@@H](C(F)(F)F)NC3=O)ccc2[nH]1)[C@@H](C)O[C@@H](C)C(F)(F)F` (single isomer, unassigned) [Example 13, N-((1R*,2R)-1-(5-((R)-Cyclopropyl((S)-2-oxo-4-(trifluoromethyl)imidazolidin-1-yl)methyl)-1H-benzo[d]imidazol-2-yl)-2-(((S)-1,1,1-trifluoropropan-2-yl)oxy)propyl)-4-methyl-1,2,5-oxadiazole-3-carboxamide] has an IC50 [1] of under 50 nM and an IC50 [2] of under 50 nM.
